From PubChem BioAssay (NCI)
Several values for one entry are separate records, joined by “and”; a condition that tells them apart may be missing. Identical values can stand only once.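 Exposure lasted 48 hours, with cells grown in 96-well plates and compounds tested at five concentrations. GI50: concentration for 50% inhibition of growth. The concentration for full growth arrest is given as TGI.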

Assays:
Assay in all cases: growth of human tumour cells (NCI), 48 h
MOLT-4 leukemia = tested on: MOLT-4 leukemia
ACHN renal = tested on: ACHN renal
SN12C renal = tested on: SN12C renal
A498 renal = tested on: A498 renal
RXF 393 renal = tested on: RXF 393 renal
PC-3 prostate = tested on: PC-3 prostate
OVCAR-3 ovarian = tested on: OVCAR-3 ovarian
MALME-3M melanoma = tested on: MALME-3M melanoma
HOP-62 NSCLC = tested on: HOP-62 NSCLC
CAKI-1 renal = tested on: CAKI-1 renal

Compound | TGI (MOLT-4 leukemia) | TGI (ACHN renal) | TGI (SN12C renal) | TGI (A498 renal) | TGI (RXF 393 renal) | TGI (PC-3 prostate) | TGI (OVCAR-3 ovarian) | TGI (MALME-3M melanoma) | TGI (HOP-62 NSCLC) | GI50 (CAKI-1 renal) | TGI (CAKI-1 renal) | GI50 (MOLT-4 leukemia) | GI50 (ACHN renal) | GI50 (SN12C renal) | GI50 (A498 renal) | GI50 (RXF 393 renal) | GI50 (PC-3 prostate) | GI50 (OVCAR-3 ovarian) | GI50 (HOP-62 NSCLC) | GI50 (MALME-3M melanoma)
COc1ccc2nc(NCN3C(=O)c4ccccc4C3=O)sc2c1 | > 100 µM | > 100 µM | > 100 µM | > 100 µM | > 100 µM | > 100 µM | > 100 µM | > 100 µM | > 100 µM | – | – | – | – | – | – | – | – | – | – | –
O=CC(Br)C(Br)c1ccccc1 (stereo not given) | 3.89 µM | 3.12 µM | 11.4 µM | 29.5 µM | 3.78 µM | 6.75 µM | 2.67 µM | – | 27.8 µM | 2.6 µM | 6.98 µM | 0.904 µM | 1.64 µM | 3.06 µM | 13.9 µM | 1.82 µM | 2.39 µM | 1.32 µM | 13.3 µM | –
O=C1C(Cl)=C(Nc2cccc(O)c2)C(=O)N1Cc1ccc(Cl)cc1 | > 100 µM | – | 8.5 µM | 21.8 µM | > 100 µM | 86.9 µM | 5.86 µM | 8.11 µM | 23 µM | 1.74 µM | 10.1 µM | 1.35 µM | – | 2.72 µM | 5 µM | 3.95 µM | 3.45 µM | 1.43 µM | 4.55 µM | 0.464 µM
CCN(CC)CCCC(C)Nc1c2ccc(Cl)cc2nc2cc(OC)c(OC)cc12 (stereo not given) | 12.6 µM | 2.97 µM | 17.8 µM | 22.2 µM | 2.67 µM | 6.28 µM | 7.63 µM | 3.52 µM | – | 2.01 µM | 5.78 µM | 0.594 µM | 1.18 µM | 3.31 µM | 7.07 µM | 1.3 µM | 2.08 µM | 1.98 µM | – | 1.86 µM
CN1CCC(C(=O)Nc2n[nH]c3nc(-c4ccc(O)cc4)c(Br)cc23)CC1 | > 25 µM and 18.9 µM | > 25 µM | > 25 µM | – | 1.4 µM and 1.6 µM | > 22.2 µM | > 11.6 µM and 1.44 µM | 11.1 µM and 11.7 µM | > 22.6 µM and 15.8 µM | 8.62 µM and 6.77 µM | > 25 µM | 1.88 µM and 1.51 µM | 5.37 µM and 6.3 µM | 1.76 µM and 4.18 µM | – | 0.442 µM and 0.485 µM | 1.08 µM and 1.64 µM | 0.815 µM and 0.504 µM | 2.39 µM and 2.43 µM | 3.56 µM and 4.97 µM
CC(=O)OCc1ccc(O)c(C=O)c1 | > 100 µM | > 100 µM | > 100 µM | – | > 100 µM | > 100 µM | > 100 µM | > 100 µM | > 100 µM | – | > 100 µM | – | – | – | – | – | – | – | – | –
CC1(C)CCC[C@]2(C)c3cc(O)ccc3CC[C@@H]12 | 67.3 µM | 33.5 µM | 31.3 µM | 29.7 µM | 35.1 µM | 30.2 µM | 34.3 µM | – | – | 19.5 µM | 35.9 µM | 11.7 µM | 18.1 µM | 17.5 µM | 16.2 µM | 16.1 µM | 15.8 µM | 17 µM | – | –
C[C@]1(C(=O)O)N[C@H](C(=O)O)CS1 | – | > 1000 µM | – | – | > 1000 µM | > 1000 µM | > 1000 µM | > 1000 µM | > 1000 µM | 843 µM | > 1000 µM | – | > 1000 µM | – | – | > 1000 µM | > 1000 µM | 504 µM | > 1000 µM | > 1000 µM
